Results published in patent US20060019938A1, “Estrogen administration for treating male cognitive dysfunction or improving male cognitive function” (priority 2003, published 2006).

Assays:
Format in all cases: in vivo, human
[1] = Serum testosterone (total and free) before and after transdermal estradiol; conditions: Visit 2, after about 4 weeks transdermal estradiol, Example 2
Text: Research subjects consisted of healthy men, and men who have been diagnosed with prostate cancer that were between the ages of 45-100. The subjects were classified into three groups: (1) Prostate cancer patients progressing on ADT and before and after starting second line therapy with transdermal estradiol as described above; (2) Prostate cancer patients continuing ADT; and (3) Age-matched healthy controls. The treatment regimen of these men was not modified as part of their participation in this study. […]
(§1) The monitoring was similar as described above in connection with example 1. Certain cognitive functions of the patients were evaluated at the beginning of the study and then approximately 4 weeks later. In the case of patients receiving estradiol treatments, the patients were evaluated prior to the initial estradiol and then approximately 4 weeks after starting estradiol treatment. Verbal memory was assessed using the immediate Paragraph Recall test and working memory was assessed using the Trails tests. Serum estradiol concentration was also measured after approximately 4 weeks of treatment, as well as other standard monitoring measurements.

[2] = test system: men with androgen-independent prostate cancer; test: Paragraph Recall test (immediate and delayed; long-term/verbal memory)
Method: One illustrative declarative memory test for assessing the medial temporal lobe memory system is known as a Paragraph Recall Task. This task is a subtest of the Weschler Memory Scale—Revised. A subject is read a short story and then immediately asked to recall the story. After an approximate 30 minute retention interval, they are asked to recall the story again. The recall responses are scored for number of story items correctly recalled and there is a standard scoring system. There are two stories for each administration so the total score is the total of both stories combined; one for immediate memory; and one for delayed memory.
(§2) Estradiol was transdermally administered to nineteen men with androgen-independent prostate cancer following a protocol outlined below.
(§3) Standard prophylactic breast irradiation was offered to all patients prior to therapy to reduce the risk of gynecomastia. Six Climara® estradiol patches (25.0 cm^2, 7.6 mg estradiol per patch) were adhered to the patients once every 7 days for a period of at least 4 weeks for a dosage of 0.6 mg estradiol/day (in vivo estradiol delivery per patch is 0.1 mg/day).
(§4) Certain cognitive functions of the patients were evaluated prior to starting estradiol treatment and approximately 4 weeks after starting estradiol treatment. Specifically, memory was assessed using immediate and delayed Paragraph Recall test and working memory was assessed using the SOP and Trails tests. Serum estradiol concentration was also measured after approximately 4 weeks of treatment, as well as other standard monitoring measurements. The Paragraph Recall test was performed as described above. The SOP test was performed as described above and was computer-administered with 8 and 10 card sets. Each card of the set was depicted on a computer screen and the subject selected the drawing for each card by pressing a corresponding number on the keyboard. The Trails test was performed as described above.
as §1

[3] = test system: prostate cancer patients progressing on ADT; test: Profile of Mood States (POMS) test, confusion subscale; conditions: Example 2, prostate cancer patients progressing on ADT
Text: Research subjects consisted of healthy men, and men who have been diagnosed with prostate cancer that were between the ages of 45-100. The subjects were classified into three groups: (1) Prostate cancer patients progressing on ADT and before and after starting second line therapy with transdermal estradiol as described above; (2) Prostate cancer patients continuing ADT; and (3) Age-matched healthy controls. The treatment regimen of these men was not modified as part of their participation in this study. Exclusion criteria included currently taking hormone replacement, active malignancy other than prostate cancer or non-melanoma skin cancer, major surgery within last 4 weeks, and score less than 25 on the Mini-Mental State Exam (a screening measure for dementia). The participant characteristics are shown below in Table 3.
The estradiol administration was the same as in example 1.
Mood was assessed using a Profile of Mood States (POMS) test as described in McNair et al, Profile of mood states manual (Education and Industrial Testing Service, San Diego (1971)). Participants completed the POMS test at both testing sessions (i.e., beginning of study and 4 weeks later). The scale asks participants to rate how they felt in the last week. Responses are categorized into six subscales (tension-anxiety, depression, anger, fatigue, confusion and vigor). […]

[4] = test system: men with androgen-independent prostate cancer; test: Trails working memory test
Text: A further illustrative working memory test is known as the Trails test. This test is a dot-to-dot paper pencil test where the subject connects dots (1-2-3-4 etc.). On a second measure they connect dots but the dots are labeled alternately in letters and numbers so they have to shift their cognitive set and keep in mind where they are in each set: 1 to A to 2 to B to 3 etc. Their score is the number of seconds to complete the dot to dot. Estradiol was transdermally administered to nineteen men with androgen-independent prostate cancer following a protocol outlined below. Standard prophylactic breast irradiation was offered to all patients prior to therapy to reduce the risk of gynecomastia. […] Certain cognitive functions of the patients were evaluated prior to starting estradiol treatment and approximately 4 weeks after starting estradiol treatment. Specifically, memory was assessed using immediate and delayed Paragraph Recall test and working memory was assessed using the SOP and Trails tests. Serum estradiol concentration was also measured after approximately 4 weeks of treatment, as well as other standard monitoring measurements. […] Certain cognitive functions of the patients were evaluated at the beginning of the study and then approximately 4 weeks later. […] Verbal memory was assessed using the immediate Paragraph Recall test and working memory was assessed using the Trails tests. […]

[5] = test system: men with androgen-independent prostate cancer; test: Toxicity monitoring (thromboembolic complications) during transdermal estradiol; conditions: 0.6 mg estradiol/day transdermal, at time of most recent analysis
Method: as §3, §4

[6] = Serum estradiol concentration during transdermal estradiol treatment
Method: Standard prophylactic breast irradiation was offered to all patients prior to therapy to reduce the risk of gynecomastia. Six […]® estradiol patches (25.0 cm^2, 7.6 mg estradiol per patch) were adhered to the patients once every 7 days for a period of at least 4 weeks for a dosage of 0.6 mg estradiol/day (in vivo estradiol delivery per patch is 0.1 mg/day). Certain cognitive functions of the patients were evaluated prior to starting estradiol treatment and approximately 4 weeks after starting estradiol treatment. Specifically, memory was assessed using immediate and delayed Paragraph Recall test and working memory was assessed using the SOP and Trails tests. Serum estradiol concentration was also measured after approximately 4 weeks of treatment, as well as other standard monitoring measurements. The Paragraph Recall test was performed as described above. The SOP test was performed as described above and was computer-administered with 8 and 10 card sets. Each card of the set was depicted on a computer screen and the subject selected the drawing for each card by pressing a corresponding number on the keyboard. The Trails test was performed as described above. The monitoring was similar as described above in connection with example 1. Certain cognitive functions of the patients were evaluated at the beginning of the study and then approximately 4 weeks later. In the case of patients receiving estradiol treatments, the patients were evaluated prior to the initial estradiol and then approximately 4 weeks after starting estradiol treatment. Verbal memory was assessed using the immediate Paragraph Recall test and working memory was assessed using the Trails tests. Serum estradiol concentration was also measured after approximately 4 weeks of treatment, as well as other standard monitoring measurements.

[7] = test system: men with androgen-independent prostate cancer; test: Subject Ordered Pointing (SOP) working memory test
Text: An illustrative working memory test is known as Subject Ordered Pointing (SOP). SOP is described, for example, in Janowsky et al., “Sex steroids modify working memory,” J Cogn Neuroscience 12(3):407-14, 2000 and Petrides et al., “Deficits on subject-ordered tasks after frontal- and temporal-lobe lesions in man,” Neuropsychologia 20:249-62, 1982. In general, subjects are presented with stacks of cards (6, 8, 10 or 12 cards/sets). […] The subject is to touch one drawing on each card in any order, but not touch the same drawing on subsequent cards in the set. Subjects err when they touch a drawing that had been touched on a previous card in the set. Therefore, the subject has to remember previous drawings touched while planning a future response. Subjects repeat each 6, 8, 10, and 12 card set three times. The total number of errors across all card sets is the measure of interest. […] Subjects are instructed to do the task at their own pace, and to try to not go too quickly or too slowly.
as §2, §3
as §4, with “Each card of the set was depicted on a computer screen and the subject selected the drawing for each card by pressing a corresponding number on the keyboard. The Trails test was performed as described above.” left out

[8] = Example 1, men with AIPC treated with estradiol
[9] = Example 2, prostate cancer patients progressing on ADT
[10] = on estradiol vs pre-treatment, about 4 weeks
[11] = on estrogen, about 4 weeks, 0.6 mg estradiol/day transdermal, men with AIPC
[12] = on estrogen, about 4 weeks, 0.6 mg/day transdermal, data from 18 subjects

Estradiol (serum) ([6]; Visit 2, after about 4 weeks transdermal estradiol, Example 2): 428.8 (280.7) pg/mL | concentration at 1 month ([6]; human, serum, other: transdermal, 0.6 mg/day, 1 month of treatment, Example 1, read-out: Estradiol, mean ± 95% CI): 0.46 ± 0.126 ng/mL | concentration at 2 months ([6]; human, serum, other: transdermal, 0.6 mg/day, 2 months of treatment, Example 1, read-out: Estradiol, mean ± 95% CI): 0.371 ± 0.115 ng/mL
Compound: C[C@]12CC[C@@H]3c4ccc(O)cc4CC[C@H]3[C@@H]1CC[C@@H]2O [Estradiol, estra-1,3,5(10)-triene-3,17β-diol]
Free T [1]: 3.5 (1.9) pmol/L | Total T [1]: 9.7 (3.9) ng/dL | long-term memory [2, 8]: significant improvement in their long-term memory | verbal memory performance (immediate Paragraph Recall, FIG. 2) [2, 9]: improved verbal memory performance | delayed Paragraph Recall test score improvement [2, 10]: 27% | immediate Paragraph Recall test score improvement [2, 10]: 19% | Paragraph Recall (delay; # correct) [2, 11]: 18.8 # correct | Paragraph Recall (immediate; # correct) [2, 11]: 22.9 # correct | confusion (POMS, FIGS. 3 and 4) [3]: trend for men receiving estradiol to report a decrease in confusion | working memory (Trails test, FIG. 1) [4, 9]: did not affect working memory | Trails (seconds B-A) ([4]; on estrogen, about 4 weeks, 0.6 mg/day transdermal, data from 15 subjects): 69.9 s | thromboembolic complications or other significant toxicity [5]: no thromboembolic complications or other significant toxicity issues | working memory (Subject-Ordered and Trails tests) [7, 8]: no change in working memory | Subject Ordered (# of errors), 8 item [7, 12]: 6.3 # of errors | Subject Ordered (# of errors), 10 item [7, 12]: 7.0 # of errors
